# What was measured:
# [1] = biological target: T1, Class C beta-lactamase P99 (E. cloacae J137) (Enterobacter cloacae, UniProt P05364); assay: Beta-lactamase enzyme inhibition (Nitrocefin, crude enzyme); type: biochemical
# T1 construct: preincubated mixture of crude enzyme and the compounds; endogenous in cells; host or cells: E. cloacae J137
# Description: (§1) Absorbance was measured at 485 nm by UV-spectrophotometer. The IC50 was calculated by plotting absorbance against concentration through Sigmoidal dose response curve using Graph Pad software.
# [2] = biological target: Class D beta-lactamase OXA 26 (A. baumannii NCTC 13303) (Acinetobacter baumannii, UniProt Q9F0V2); assay: as above; type: biochemical; conditions: A. baumannii NCTC 13303 (OXA 26), read-out: Beta-lactamase enzyme inhibition IC50
# Sequence of Class D beta-lactamase OXA 26 (A. baumannii NCTC 13303) (Q9F0V2 entry or part of it): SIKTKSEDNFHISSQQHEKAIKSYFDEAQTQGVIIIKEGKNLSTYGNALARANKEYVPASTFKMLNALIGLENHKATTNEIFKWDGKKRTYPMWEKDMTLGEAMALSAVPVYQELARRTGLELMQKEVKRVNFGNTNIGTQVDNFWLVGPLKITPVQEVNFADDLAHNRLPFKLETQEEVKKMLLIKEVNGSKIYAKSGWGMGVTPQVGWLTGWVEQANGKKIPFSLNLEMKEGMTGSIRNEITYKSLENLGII
# Description: as §1
# E. coli NCTC 13353 = assay: Zone of inhibition, agar well, with and without ceftazidime; type: cell-based; conditions: E. coli NCTC 13353
# Description: (§2) In a typical experiment, two sets of plates containing growth media (Molten Mueller Hilton Agar) and bacterial strains were prepared. One set of plates was taken as control (without ceftazidime) and other set contained ceftazidime. The media was allowed to solidify and wells were punched later, into which varying concentrations of compounds according to the invention were poured. A two-fold serial dilution range of each of the compounds according to invention was prepared and 50 μl of each of the dilution was added into the punched well. The plates were then incubated at 37° C. for 18 hours in BOD incubator and diameters of zone of inhibition were measured after the completion of the incubation.
# (§3) The Table 6 provides the antibacterial activity of the combination comprising compounds according to invention and ceftazidime. The compounds according to invention were tested at 0.12, 0.25, 0.5 and 1 μg/well.
# E. coli M50 = assay: as above; type: cell-based; conditions: E. coli M50
# Description: as §2, §3
# P. aeruginosa ATCC 27853 = assay: Antibacterial activity (MIC), agar dilution per CLSI; type: cell-based; conditions: Pseudomonas aeruginosa, ATCC27853
# Description: (§4) The biological activity of representative compounds according to the invention against various bacterial strains was investigated. In a typical study, overnight grown bacterial cultures were diluted appropriately and inoculated on the agar media containing doubling dilutions of the test compounds. Observations for growth or no growth was performed after 16-20 hours of incubation at 35±2° C. in the ambient air. The overall procedure was performed as per Clinical and Laboratory Standards Institute (CLSI) recommendations, (Clinical and Laboratory Standards Institute (CLSI), Performance Standards for Antimicrobial Susceptibility Testing, 20th Informational Supplement, M07-A9, Volume 32, No. 2, 2012). Molten Mueller Hinton Agar (BD, USA) containing serial dilutions of each antibacterial agent were poured on to the plates and allowed to solidify. Appropriate suspensions from the freshly grown cultures were prepared in normal saline so that about 10^4 CFU/spot of the organism was delivered on to the drug containing agar plates using automated multipoint inoculator (Mast, UK). The plates were incubated in Biochemical oxygen demand (BOD) incubator at 37° C. for 18 hours and then examined for growth.
# (§5) Table 3 details the antibacterial activity of representative compound of Formula (I), (2S,5R)-sulfuric acid mono-{2-[N′-(2-(S)-pyrrolidin-2-yl-acetyl)-hydrazinocarbonyl]-7-oxo-1,6-diaza-bicyclo[3.2.1]oct-6-yl}ester (Compound of Example 1), against various Multi Drug Resistant (MDR) Gram-negative bacterial strains. The activities are expressed as Minimum Inhibitory Concentrations (MICs) (mcg/ml).
# P. aeruginosa 2779 = assay: as above; type: cell-based; conditions: Pseudomonas aeruginosa
# Description: as §4, §5
# E. coli NCTC 13352 = assay: as above; type: cell-based; conditions: Escherichia coli, NCTC13352
# Description: as §4, §5
# K. pneumoniae H 525 = assay: as above; type: cell-based; conditions: Klebsiella pneumoniae, H525
# Description: as §4, §5
# E. coli NCTC 13351 = assay: as above; type: cell-based; conditions: Escherichia coli, NCTC13351
# Description: as §4, §5
# P. aeruginosa PAO1 = assay: as above; type: cell-based; conditions: Pseudomonas aeruginosa
# Description: as §4, §5
# E. coli M 50 = assay: as above; type: cell-based; conditions: Escherichia coli, M50
# Description: as §4, §5
# P. aeruginosa R 20 = assay: as above; type: cell-based; conditions: Pseudomonas aeruginosa, R20
# Description: as §4, §5
# C. frundaii 58 MP = assay: as above; type: cell-based
# Description: as §4, §5
# E. coli M 49 = assay: as above; type: cell-based; conditions: Escherichia coli, M49
# Description: as §4, §5
# K. pneumoniae B 88 = assay: as above; type: cell-based; conditions: Klebsiella pneumoniae, B88
# Description: as §4, §5
# K. pneumoniae S 21 = assay: as above; type: cell-based; conditions: Klebsiella pneumoniae, S21
# Description: as §4, §5
# E. cloacae M 20 = assay: as above; type: cell-based; conditions: Enterobacter cloacae, M20
# Description: as §4, §5
# E. coli 7 MP = assay: as above; type: cell-based; conditions: Escherichia coli
# Description: as §4, §5
# [3] = tested on: K. pneumoniae H521 (KPC, SHV, TEM); assay: as above; type: cell-based; conditions: Klebsiella pneumoniae; K. pneumoniae H521 (KPC, SHV, TEM); read-out: MIC
# Description: as §4
# (§6) The strains selected for study included E. coli NCTC 13353 producing CTX-M15 and OXA-1 beta-lactamase enzymes; K. pneumoniae H521 producing KPC, SHV, TEM beta-lactamase enzymes; and K. pneumoniae S48 producing NDM, SHV, TEM beta-lactamase enzymes. The activities are expressed as Minimum Inhibitory Concentrations (MICs) (mcg/ml).
# (§7) The activities are expressed as Minimum Inhibitory Concentrations (MICs) (mcg/ml).
# [4] = tested on: E. coli NCTC 13353 (CTX-M15, OXA-1); assay: as above; type: cell-based; conditions: Escherichia coli, NCTC13353; E. coli NCTC 13353 (CTX-M15, OXA-1); read-out: MIC
# Description: as §4, §6, §7
# [5] = compound 0.25 μg/well + Ceftazidime 10 μg/ml
# [6] = compound 0.5 μg/well + Ceftazidime 10 μg/ml
# [7] = compound 1 μg/well + Ceftazidime 10 μg/ml
# [8] = compound […] + Ceftazidime 10 μg/ml
# T1 sequence (P05364 21-381): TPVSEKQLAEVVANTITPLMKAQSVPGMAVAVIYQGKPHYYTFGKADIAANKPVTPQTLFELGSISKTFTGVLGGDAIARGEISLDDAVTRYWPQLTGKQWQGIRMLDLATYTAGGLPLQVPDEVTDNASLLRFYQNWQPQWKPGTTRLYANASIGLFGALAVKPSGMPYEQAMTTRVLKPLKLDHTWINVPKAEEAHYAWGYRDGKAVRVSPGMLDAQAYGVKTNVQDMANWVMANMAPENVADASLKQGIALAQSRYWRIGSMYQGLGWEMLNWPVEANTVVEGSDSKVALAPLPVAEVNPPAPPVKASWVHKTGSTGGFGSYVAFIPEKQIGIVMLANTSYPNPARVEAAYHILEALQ
structure (smiles),measurement,setting,value
"O=C(C[C@@H]1CCCN1)NNC(=O)[C@@H]1CC[C@@H]2CN1C(=O)N2OS(=O)(=O)O [Example 1, (2S,5R)-Sulfuric acid mono-{2-[N′-(2-(S)-pyrrolidin-2-yl-acetyl)-hydrazinocarbonyl]-7-oxo-1,6-diaza-bicyclo[3.2.1]oct-6-yl}ester]",IC50,[1],27 nM
same,IC50,[2],4.77 µM
same,"Diameter of Zone of Inhibition, Compound + Ceftazidime (10 μg/ml)",E. coli NCTC 13353; [5],26 mm
same,"Diameter of Zone of Inhibition, Compound + Ceftazidime (10 μg/ml)",E. coli NCTC 13353; [6],28 mm
same,"Diameter of Zone of Inhibition, Compound + Ceftazidime (10 μg/ml)",E. coli NCTC 13353; [7],31 mm
same,"Diameter of Zone of Inhibition, Compound + Ceftazidime (10 μg/ml)",E. coli NCTC 13353; [8],22 mm
same,zone of inhibition at […],"E. coli NCTC 13353; Escherichia coli, NCTC13353, compound alone, 0.12 μg/well, read-out: Diameter of Zone of Inhibition, Compound",11.5 mm
same,zone of inhibition at 0.25 µg/disc,"E. coli NCTC 13353; Escherichia coli, NCTC13353, compound alone, 0.25 μg/well, read-out: Diameter of Zone of Inhibition, Compound",14 mm
same,zone of inhibition at 0.5 µg/disc,"E. coli NCTC 13353; Escherichia coli, NCTC13353, compound alone, 0.5 μg/well, read-out: Diameter of Zone of Inhibition, Compound",15 mm
same,zone of inhibition at 1 µg/disc,"E. coli NCTC 13353; Escherichia coli, NCTC13353, compound alone, 1 μg/well, read-out: Diameter of Zone of Inhibition, Compound",16.5 mm
same,"Diameter of Zone of Inhibition, Compound + Ceftazidime (10 μg/ml)",E. coli M50; [5],19 mm
same,"Diameter of Zone of Inhibition, Compound + Ceftazidime (10 μg/ml)",E. coli M50; [6],20.5 mm
same,"Diameter of Zone of Inhibition, Compound + Ceftazidime (10 μg/ml)",E. coli M50; [7],22.5 mm
same,"Diameter of Zone of Inhibition, Compound + Ceftazidime (10 μg/ml)",E. coli M50; [8],17 mm
same,zone of inhibition at […],"E. coli M50; Escherichia coli, compound alone, 0.12 μg/well, read-out: Diameter of Zone of Inhibition, Compound",10.5 mm
same,zone of inhibition at 0.25 µg/disc,"E. coli M50; Escherichia coli, compound alone, 0.25 μg/well, read-out: Diameter of Zone of Inhibition, Compound",14 mm
same,zone of inhibition at 0.5 µg/disc,"E. coli M50; Escherichia coli, compound alone, 0.5 μg/well, read-out: Diameter of Zone of Inhibition, Compound",16 mm
same,zone of inhibition at 1 µg/disc,"E. coli M50; Escherichia coli, compound alone, 1 μg/well, read-out: Diameter of Zone of Inhibition, Compound",18 mm
same,MIC,P. aeruginosa ATCC 27853,8 µg/mL
same,MIC,P. aeruginosa 2779,8 µg/mL
same,MIC,E. coli NCTC 13352,0.5 µg/mL
same,MIC,K. pneumoniae H 525,0.5 µg/mL
same,MIC,E. coli NCTC 13351,0.5 µg/mL
same,MIC,P. aeruginosa PAO1,4 µg/mL
same,MIC,E. coli M 50,0.5 µg/mL
same,MIC,P. aeruginosa R 20,16 µg/mL
same,MIC,C. frundaii 58 MP,0.5 µg/mL
same,MIC,E. coli M 49,2 µg/mL
same,MIC,K. pneumoniae B 88,0.5 µg/mL
same,MIC,K. pneumoniae S 21,2 µg/mL
same,MIC,E. cloacae M 20,0.5 µg/mL
same,MIC,E. coli 7 MP,1 µg/mL
same,MIC,[3],0.5 µg/mL
same,MIC,[4],0.5 µg/mL

# Source: patent publication US9657022B2, “7-OXO-1,6-diazabicyclo[3.2.1]octane derivatives and their use as antibacterial agents” (WOCKHARDT LIMITED, priority 2014, dated 2017)
